Assay results reported in patent US20050255582A1, “Surface modifying composition” (Arch Development Corporation:, priority 2000, published 2005).

Legend:
Assay type in all cases: binding
Fibrinogen = experiment: SPR adsorption of protein on monolayers: fibrinogen; settings: for amount of protein that remains adsorbed to the SAM (Fibrinogen): protein 0.5 mg/ml in PBS pH 7.6, SAM on gold
Method: (§1) Two experimental procedures were used to evaluate the monolayers as inert surfaces. Surface plasmon resonance (SPR) spectroscopy measures the adsorption of protein to the monolayer. All SPR experiments were performed on a BIAcore 1000 instrument. Substrates were glued into plastic BIACore cassettes with a two-part epoxy (DEVCON). Phosphate-buffered saline (PBS; 10 mM phosphate, 150 mM sodium chloride, pH 7.6) was degassed under vacuum and all protein solutions were filtered through 0.45-μm filters before use. SPR is well suited for characterization of protein adsorption because it measures adsorption in situ and can detect weak, readily reversible protein adsorption. For all monolayers, a panel of five proteins that spanned a range in molecular weight and pI were investigated.
Protein adsorption and cell attachment on four different monolayers was compared. Gold films were prepared by evaporation of titanium (1.5 nm) and then gold (40 nm) onto glass cover slips (0.20 mm, No. 2, Corning). The SAMs were prepared by immersing gold films of approximately 1 cm^2 in ethanolic solutions of alkanethiol (2 mM) for 9 hours. The SAMs were rinsed with ethanol and dried with nitrogen before use. As a control monolayer that is not inert, a SAM of hexadecanethiolate that presents hydrophobic methyl groups at the surface were used. Monolayers terminated in the tri(ethylene glycol) group were used as the current standard for inert surfaces. Each of the two additional monolayers presents the mannitol group and differs only in the length of alkyl chain to which the mannitol group is appended. [drawing 9]
SPR was used to measure the adsorption of five proteins—fibrinogen, pepsin, lysozyme, insulin, and trypsin—to the four monolayers. SPR measures changes in the refractive index of a solution near the interface with a gold film by measuring changes in the angle (ΔΘm) at which p-polarized light reflected from the glass/gold interface has a minimum in intensity. SAMs were mounted in a flow cell and experiments were performed by first flowing a phosphate buffered saline (PBS) through the cell for 5 minutes, then a solution of protein in the same buffer (0.5 mg/ml) for 5 minutes, and then PBS for 5 minutes. The rise in ΔΘm upon introduction of the protein solution has two contributions. […] The second contribution is due to the adsorption of protein to the SAM. The amount of protein that adsorbs irreversibly to the SAM is determined by comparing the shift in Θm before and after the SAM is exposed to protein. An increase in Θm of 0.1° corresponds to an increase in density of adsorbed protein of 1 ng/mm^2.

Trypsin = experiment: SPR adsorption of protein on monolayers: trypsin; settings: protein 0.5 mg/ml in PBS pH 7.6, SAM on gold
Method: as §1
(§2) Protein adsorption and cell attachment on four different monolayers was compared. Gold films were prepared by evaporation of titanium (1.5 nm) and then gold (40 nm) onto glass cover slips (0.20 mm, No. 2, Corning). […]
(§3) SPR was used to measure the adsorption of five proteins—fibrinogen, pepsin, lysozyme, insulin, and trypsin—to the four monolayers. […] The amount of protein that adsorbs irreversibly to the SAM is determined by comparing the shift in Θm before and after the SAM is exposed to protein. […]

Lysozyme = molecular target: T1, Lysozyme (Homo sapiens, UniProt P61626); experiment: SPR adsorption of protein on monolayers: lysozyme; settings: protein 0.5 mg/ml in PBS pH 7.6, SAM on gold
T1 sequence (P61626 19-148): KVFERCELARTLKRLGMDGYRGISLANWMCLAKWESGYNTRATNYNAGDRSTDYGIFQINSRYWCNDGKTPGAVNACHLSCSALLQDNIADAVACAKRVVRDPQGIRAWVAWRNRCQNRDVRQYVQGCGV
Method: as §1, §2, §3

Insulin = experiment: SPR adsorption of protein on monolayers: insulin; settings: protein 0.5 mg/ml in PBS pH 7.6, SAM on gold
Method: as §1, §2, §3

Pepsin = Pepsin (Homo sapiens, UniProt P0DJD8); experiment: SPR adsorption of protein on monolayers: pepsin; settings: protein 0.5 mg/ml in PBS pH 7.6, SAM on gold
Method: as §1, §2, §3

Chain of Pepsin (P0DJD8 63-388): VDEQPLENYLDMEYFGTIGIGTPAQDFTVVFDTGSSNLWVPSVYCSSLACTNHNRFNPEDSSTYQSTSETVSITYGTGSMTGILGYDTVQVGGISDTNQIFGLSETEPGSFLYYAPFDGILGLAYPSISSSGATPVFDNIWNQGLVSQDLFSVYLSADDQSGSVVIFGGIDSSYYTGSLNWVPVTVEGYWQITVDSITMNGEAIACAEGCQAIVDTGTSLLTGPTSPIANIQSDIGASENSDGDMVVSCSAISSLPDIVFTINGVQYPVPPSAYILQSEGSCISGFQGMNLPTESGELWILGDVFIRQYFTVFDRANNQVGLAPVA

CCCCCCCCCCCCCCCCS [HDT, hexadecanethiolate]
adsorption of fibrinogen to the SAM (in words) (Fibrinogen; FIG. 1): A complete monolayer of protein adsorbs | change in Θm on adsorption of fibrinogen (Fibrinogen; FIG. 1): 0.35 ° | amount of protein that remains adsorbed to the SAM (Fibrinogen) (Fibrinogen): 3,432 pg/mm^2 | amount of protein that remains adsorbed to the SAM (Fibrinogen) (Fibrinogen; listed as hexadecanethiolate): 3,500 pg/mm^2 | amount of protein that remains adsorbed to the SAM (Trypsin) (Trypsin): 661 pg/mm^2 | amount of protein that remains adsorbed to the SAM (Lysozyme) (Lysozyme): 1,023 pg/mm^2 | amount of protein that remains adsorbed to the SAM (Insulin) (Insulin): 688 pg/mm^2 | amount of protein that remains adsorbed to the SAM (Pepsin) (Pepsin): 1,337 pg/mm^2
